Patent US20090030072A1, “PHARMACEUTICAL COMBINATION OF OPIOID AND PRO[…]” (SUCAMPO AG, priority 2007, published 2009)

Test system: oxycodone-induced constipation in mice
Experiment: Graphite marker propulsion in the intestine, oxycodone-induced constipation in mice
Assay type: in vivo, Male Crlj: CD1 (ICR) mice
Details: 150 minutes after graphite marker
Description: Male Crlj: CD1 (ICR) mice were given oral administration of 0.1 mL of graphite maker (INK-30 containing 1% tragacanth gum). Immediately after administration of the graphite marker, the animals were treated orally with oxycodone at 5 mg/kg. The dosing volume of oxycodone was set at 5 mL/kg; the animals of the normal group were given the same volume of 0.5% CMC—Na. Immediately after administration of oxycodone or 0.5% CMC—Na, the animal was treated with Compound 1. The dosing volume of the Compound 1 was set at 5 mL/kg; the animals of the normal and control groups were given the same volume of water for injection. The animals were euthanized by cervical dislocation 150 minutes after administration of graphite marker, and the abdomen was cut open. The distance from the stomach to the cecum, and moving distance of the graphite marker in the intestine were measured. Propulsion rate was calculated by the following formula.
Propulsion rate (%)=(Moving distance of graphite marker/Distance from the stomach to the cecum)×100

Row | SMILES | The graphite marker propulsion rate Mean ± S.E. (Compound 1 100 μg/kg combined with oxycodone 5 mg/kg oral, n=15, p < 0.05 compared to control group) | The graphite marker propulsion rate Mean ± S.E. (control group: oxycodone 5 mg/kg oral alone, n=15, p < 0.01 compared to normal group (99.8 ± 0.2)) | The graphite marker propulsion rate Mean ± S.E. (control group: oxycodone 5 mg/kg oral alone, n=15, p < 0.01 compared to normal group (99.8 ± 0.2), listed as Oxycodone)
1 | CCCCC(F)(F)C(=O)CCC1C(O)CC(=O)C1CCCCCCC(=O)O (stereo not drawn) [Compound 1, 13,14-dihydro-15-keto-16,16-difluoro-PGE1] | 80.5±5.5% |  | 
2 | COc1ccc2c3c1O[C@H]1C(=O)CC[C@@]4(O)[C@@H](C2)N(C)CC[C@]314 [oxycodone] |  | 62.3±5.6% | 62.3 ± 5.6 %
